The values below come from ChEMBL document CHEMBL3232786, “Therapeutic utility of cannabinoid receptor type 2 (CB(2)) selective agonists” (J Med Chem, 2013).

The target of data set [1] is T1, Cannabinoid receptor 1 (Homo sapiens, UniProt P21554). In words: Agonist activity at human CB1 receptor expressed in human SK-N-MC cells at 1 uM by CRE-beta galactosidase reporter gene assay. Type of data set: functional, cell-based. In general terms: A reporter such as luciferase makes a cellular process visible.
The target of data set [2] is T2, Cannabinoid receptor 2 (Homo sapiens, UniProt P34972). In words: Agonist activity at human CB2 receptor expressed in CHO-K1 cells assessed as inhibition of forskolin-induced cAMP accumulation by TR-FRET assay. Type of data set: functional, cell-based. In general terms: Cyclic AMP is a second messenger, typically raised through Gs and lowered through Gi signalling.

The target in data set [3] is T1, Cannabinoid receptor 1. In words: Agonist activity at human CB1 receptor expressed in CHO-K1 cells assessed as inhibition of forskolin-induced cAMP accumulation by TR-FRET assay. The format is functional, cell-based.
The species named for another data set is Homo sapiens. Nature of the data set: Selectivity ratio of Ki for human CB1 receptor to Ki for human CB2 receptor.
For another data set, the species on record is Rattus norvegicus. Nature of the data set: Selectivity ratio of Ki for CB2 receptor of rat spleen membranes to Ki for CB1 receptor of rat cerebellar membranes. Type of data set: tissue-based.
In data set [4] the target is T3, Cannabinoid receptor 1 (Rattus norvegicus, UniProt P20272). Nature of the data set: Displacement of [3H]-CP55940 from CB1 receptor of rat cerebellar membranes by liquid scintillation counting in presence of serine protease inhibitor PMSF. Further details: species or system Cerebellum, Membrane. (In general: In a radioligand displacement assay an active substance lowers the binding of a labelled ligand.)

The target in data set [5] is T4, Cannabinoid receptor 2 (Rattus norvegicus, UniProt Q9QZN9).
T4 sequence (Q9QZN9 whole entry): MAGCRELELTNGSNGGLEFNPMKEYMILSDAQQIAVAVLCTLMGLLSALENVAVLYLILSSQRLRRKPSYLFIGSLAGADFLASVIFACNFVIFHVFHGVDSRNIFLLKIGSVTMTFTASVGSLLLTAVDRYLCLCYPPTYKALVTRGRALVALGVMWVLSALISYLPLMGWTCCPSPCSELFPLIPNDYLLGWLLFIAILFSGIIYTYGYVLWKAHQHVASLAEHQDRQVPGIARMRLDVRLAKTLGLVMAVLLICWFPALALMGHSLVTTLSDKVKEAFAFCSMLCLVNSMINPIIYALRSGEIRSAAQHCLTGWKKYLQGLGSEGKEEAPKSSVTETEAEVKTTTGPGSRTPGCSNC
Nature of the data set: Displacement of [3H]-CP55940 from CB2 receptor of rat spleen membranes by liquid scintillation counting in presence of serine protease inhibitor PMSF. The format is tissue-based, Membrane.

For data set [6], the target named is T1, Cannabinoid receptor 1. Nature of the data set: Binding affinity to human CB1 receptor.
For data set [7], the target named is T2, Cannabinoid receptor 2. Nature of the data set: Binding affinity to human CB2 receptor.
The target of data set [8] is T2, Cannabinoid receptor 2. Nature of the data set: Agonist activity at human CB2 receptor assessed as inhibition of forskolin-induced cAMP production preincubated for 15 mins followed by forskolin challenge measured after 30 mins by HTRF assay. Type of data set: functional.
Data set [9] deals with T2, Cannabinoid receptor 2. In words: Binding affinity to CB2 receptor (unknown origin).
Data set [10] is described as follows: Selectivity ratio of Ki for rat CB1 receptor to Ki for human CB2 receptor.
Data set [11] deals with T3, Cannabinoid receptor 1. Nature of the data set: Binding affinity to rat CB1 receptor.
Data set [12] addresses T2, Cannabinoid receptor 2. In words: Agonist activity at human CB2 receptor expressed in Sf9 membranes assessed as effect on [35S]-GTPgammaS binding after 30 mins by scintillation counting. Type of data set: functional, cell membranes.
Data set [13] has as its target T2, Cannabinoid receptor 2. In words: Agonist activity at human CB2 receptor.
Data set [14] concerns the target T1, Cannabinoid receptor 1. Nature of the data set: Agonist activity at human CB1 receptor.
The target of data set [15] is T3, Cannabinoid receptor 1. Nature of the data set: Displacement of [3H]SR141716A from rat brain CB1 receptor by liquid scintillation spectrophotometry.
Data set [16] deals with T1, Cannabinoid receptor 1. In words: Agonist activity at human CB1 receptor expressed in human SK-N-MC cells by CRE-beta galactosidase reporter gene assay. Type of data set: functional, cell-based.
In data set [17] the target is T2, Cannabinoid receptor 2. Nature of the data set: Agonist activity at human CB2 receptor expressed in human SK-N-MC cells by CRE-beta galactosidase reporter gene assay. Type of data set: functional, cell-based.
Data set [18] addresses T1, Cannabinoid receptor 1. In words: Agonist activity at human CB1 receptor assessed as inhibition of forskolin-induced cAMP production preincubated for 15 mins followed by forskolin challenge measured after 30 mins by HTRF assay. Type of data set: functional.
The nature of data set [19]: Half life in Sprague-Dawley rat at 10 mg/kg, po by UV-HPLC analysis. Further details: dose 10 mg/kg, route oral. The format is ADME, organism-based. Particulars: in vivo.
Data set [20] in a line: Cmax in Sprague-Dawley rat at 10 mg/kg, po by UV-HPLC analysis. Type of data set: ADME, organism-based. On the set-up: dose 10 mg/kg, route oral. The note with it: in vivo.
Data set [21] can be described thus: AUC (0 to infinity) in Sprague-Dawley rat at 10 mg/kg, po by UV-HPLC analysis. Particulars: plasma. Further details: time infinity, dose 10 mg/kg, route oral. The format is ADME, organism-based.
For data set [22], the target named is T4, Cannabinoid receptor 2. Nature of the data set: Inverse agonist activity at rat CB2 receptor expressed in CHO-K1 cells assessed as inhibition of forskolin-induced cAMP accumulation. Type of data set: functional, cell-based.
Data set [23] has as its target T2, Cannabinoid receptor 2. Nature of the data set: Agonist activity at human CB2 receptor assessed as inhibition of forskolin-induced cAMP production preincubated for 15 mins followed by forskolin challenge measured after 30 mins by HTRF assay relative to control. Type of data set: functional.

T1 sequence (P21554 whole entry): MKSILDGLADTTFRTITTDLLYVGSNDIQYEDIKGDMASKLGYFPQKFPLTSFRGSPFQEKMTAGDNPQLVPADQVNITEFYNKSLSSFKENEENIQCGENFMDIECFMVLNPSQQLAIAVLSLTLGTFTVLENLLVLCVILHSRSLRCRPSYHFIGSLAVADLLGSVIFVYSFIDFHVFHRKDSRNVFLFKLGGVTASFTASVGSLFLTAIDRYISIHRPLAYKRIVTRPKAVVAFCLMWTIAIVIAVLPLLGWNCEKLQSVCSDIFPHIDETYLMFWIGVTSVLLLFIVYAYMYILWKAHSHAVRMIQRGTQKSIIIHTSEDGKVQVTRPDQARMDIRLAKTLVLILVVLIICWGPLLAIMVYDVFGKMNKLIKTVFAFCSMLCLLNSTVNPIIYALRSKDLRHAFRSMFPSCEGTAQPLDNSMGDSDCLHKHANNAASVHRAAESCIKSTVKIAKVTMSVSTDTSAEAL
T3 sequence (P20272 whole entry): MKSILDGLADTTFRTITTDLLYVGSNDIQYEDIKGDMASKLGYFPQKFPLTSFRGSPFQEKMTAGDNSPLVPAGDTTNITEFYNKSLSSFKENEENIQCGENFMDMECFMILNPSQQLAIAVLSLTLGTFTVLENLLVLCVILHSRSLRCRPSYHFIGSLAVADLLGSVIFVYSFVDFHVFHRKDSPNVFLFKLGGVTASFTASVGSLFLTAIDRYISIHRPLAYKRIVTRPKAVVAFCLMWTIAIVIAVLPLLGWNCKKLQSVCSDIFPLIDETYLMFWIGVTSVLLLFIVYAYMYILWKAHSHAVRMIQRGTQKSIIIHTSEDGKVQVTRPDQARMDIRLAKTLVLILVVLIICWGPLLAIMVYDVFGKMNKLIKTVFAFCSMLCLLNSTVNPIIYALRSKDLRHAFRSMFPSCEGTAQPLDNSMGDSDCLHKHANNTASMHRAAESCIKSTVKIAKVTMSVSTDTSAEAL
T2 sequence (P34972 whole entry): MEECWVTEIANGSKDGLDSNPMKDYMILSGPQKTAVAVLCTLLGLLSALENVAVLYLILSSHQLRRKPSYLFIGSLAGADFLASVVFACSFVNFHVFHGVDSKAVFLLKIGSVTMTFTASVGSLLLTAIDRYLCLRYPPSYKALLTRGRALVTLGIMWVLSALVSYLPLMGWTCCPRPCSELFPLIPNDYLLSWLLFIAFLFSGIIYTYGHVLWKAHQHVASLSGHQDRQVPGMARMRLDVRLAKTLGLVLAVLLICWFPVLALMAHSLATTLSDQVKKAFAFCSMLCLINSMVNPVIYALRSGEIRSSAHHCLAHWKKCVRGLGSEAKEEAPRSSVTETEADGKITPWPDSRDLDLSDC

On to `O=C(NCC12CC3CC(CC(C3)C1)C2)c1nn(C2CCCCC2)c2c1CCCCCC2`, for which the Activity on Cannabinoid receptor 1 [1] amounted to 71%.
Broadly, the EC50 is the concentration needed to bring the measured effect to its halfway point. On to `O=C(NC1CCCC1)c1ccc2c(c1)N(S(=O)(=O)c1ccc(F)cc1)CCS2`, for which the EC50 at Cannabinoid receptor 2 [2] amounted to 1 nM; on Cannabinoid receptor 1 [3] it was 10 nM.
With `COCCN1CC(C)(C)S/C1=N\C(=O)c1cc(Cl)ccc1OC`, in the data set filed under Homo sapiens, the Ratio Ki came to 10.
Usually Ki stands for the dissociation constant of the complex between target and ligand, obtained from inhibition or displacement. As for `CCCCC/C=C\C/C=C\C/C=C\C/C=C\CCCC(=O)NC1CC1`, in the data set filed under Rattus norvegicus, the Ratio Ki worked out at 325. In addition, the Ki at Cannabinoid receptor 1 [4] turned out to be 2.2 nM; on Cannabinoid receptor 2 [5] it was 715 nM.
As to `CCCCCCC(C)(C)c1cc(O)c([C@H]2CC(=O)[C@H]3C[C@@H]2C3(C)C)c(OC(=O)/C=C/C(=O)O)c1` [PRS-211375], the values for the Ki on Cannabinoid receptor 1 [6] and on Cannabinoid receptor 2 [7] were 334 nM and 9 nM, respectively. Also, the Ratio Ki in the data set listed under Homo sapiens worked out at 37.
As for `Clc1ccc(-c2nc(N3CCCCC3)c3ccccc3n2)c(Cl)c1`, the Ki at Cannabinoid receptor 2 [8] was < 1000 nM.
As for `Cc1ccc2c(c1)Cc1c(C(=O)NN3CCCCC3)nn(-c3ccc(Cl)cc3Cl)c1-2`, the Ki at Cannabinoid receptor 2 [9] is 0.037 nM.
For the molecule `CCCCCCC(C)(C)c1cc(O)c2c(c1)OC(C)(C)[C@@H]1CC=C(C)C[C@@H]21`, in the data set filed under Homo sapiens, the Ratio Ki turned out to be 1.7.
Take `CCCCCc1ccc2c(c1)OC(C)(C)[C@@H]1CC=C(C)C[C@@H]21`: the Ratio Ki in [10] is > 312. Besides, the Ki was > 10000 nM at Cannabinoid receptor 1 [11] and 32 nM on Cannabinoid receptor 2 [7].
On to `O=S(=O)(c1ccc2c(c1)C1C3CCC(C3)C1C(c1ccccc1)N2)N1CCOCC1` (configuration not stated), for which the EC50 on Cannabinoid receptor 1 [3] was > 10000 nM.
As to `CCCn1c(C)c(C(=O)c2cc3ccsc3n2CCC)c2ccccc21`, on Cannabinoid receptor 2 [12], the EC50 is < 100 nM.
For `COc1ccc2c(c1)c(CCN1CCOCC1)c(C)n2C(=O)c1cccc(Cl)c1Cl`, the Ki at Cannabinoid receptor 2 [13] was determined as 3.8 nM; at Cannabinoid receptor 1 [14], 4800 nM.
`CC(=O)Oc1cc(O[C@H](C)CCCc2ccccc2)cc2c1[C@@H]1C[C@H](O)CC[C@H]1[C@H](C)N2` [LEVONANTRADOL]: on Cannabinoid receptor 1 [15], the Ki came to 2.9 nM.
Consider `Cc1c(C(=O)c2cccc(Cl)c2Cl)c2ccsc2n1CCN1CCOCC1`, for which the EC50 on Cannabinoid receptor 2 [12] is < 100 nM.
As to `CS(=O)(=O)N1CCc2c(cc(-c3cccc(Cl)c3)c(=O)n2CC2CCC2)C1`, the EC50 is < 100 nM at Cannabinoid receptor 2 [2] and > 10000 nM at Cannabinoid receptor 1 [3].
In the case of `C[C@H](NS(=O)(=O)/C=C/c1n[nH]c2c1CCCC[C@@H]2Cc1cccc(F)c1)c1ccccc1`, the EC50 on Cannabinoid receptor 1 [16] was > 5000 nM; on Cannabinoid receptor 2 [17], 9 nM. Further, in the data set listed under Homo sapiens, the Ratio Ki was > 550.
For `CCCCCCC(C)(C)c1cc(OC)c2c(c1)OC(C)(C)[C@@H]1CC=C(C)C[C@@H]21`, the Ratio Ki in the data set filed under Homo sapiens is > 790.
For the molecule `CNC(=O)[C@@H](NC(=O)c1nc(-c2ccccc2)n2c1CN(C)CCC2)C(C)(C)C`, the EC50 was 10 nM at Cannabinoid receptor 2 [8] and > 10000 nM at Cannabinoid receptor 1 [18].
As usually defined, the half-life is how long it takes for the measured level to halve. A low value points to rapid decline. Broadly, the Cmax is the highest concentration seen after dosing. Usually AUC(0-inf) stands for total exposure, with the tail of the curve extrapolated. Low readings indicate low exposure, high ones high exposure. Regarding `CC(C)(CO)NC(=O)c1nn(-c2ccc(Cl)cc2)c2c1C1CCC2C1` (configuration not stated), in [19], the half-life was 4.8 h. Moreover, in data set [20], the highest concentration (Cmax) is 1950 ng/mL. This molecule came in with an AUC(0-inf) in data set [21] of 12000 ng·h/mL.
Regarding `CN1CCCC[C@@H]1Cn1cc(C(=O)c2cc([N+](=O)[O-])ccc2I)c2ccccc21`, the EC50 on Cannabinoid receptor 2 [22] turned out to be 315 nM.
In the case of `C=C1CC[C@@H]2[C@@H](C1)c1c(OC)cc(C(C)(C)CCCCCC)cc1OC2(C)C`, the Ratio Ki in the data set filed under Homo sapiens is > 1000.
Broadly, the Emax is the size of the effect at its maximum, as opposed to the concentration needed. In the case of `CC(NC(=O)c1nc(N2CCOCC2)n2ccccc12)C(C)(C)C` (configuration not stated), the Ratio Ki in the data set filed under Homo sapiens was > 3100. Also, the EC50 at Cannabinoid receptor 2 [8] is 5.4 nM; at Cannabinoid receptor 1 [18], > 17000 nM. For the same molecule, on Cannabinoid receptor 2 [23], the Emax was 99.5%.
On to `FC1(F)CCN(Cc2nc(-c3cccc(C(F)(F)F)c3)n3ccccc23)CC1`, for which the EC50 at Cannabinoid receptor 2 [8] turned out to be 17 nM.
For the molecule `CC(=O)N1CCC(Cn2c(C(C)(C)C)nc3cc(S(=O)(=O)C4CCCC4)ccc32)CC1`, the EC50 at Cannabinoid receptor 2 [8] stood at 3 nM.
In the case of `CCCC(C)(C)c1ccc2c(c1)OC(C)(C)[C@@H]1CC=C(C)C[C@@H]21`, the Ratio Ki in data set [10] is 200.
